# Experimental data taken from patent US8592175B2, “Nitroreductase enzymatic substrates” (bioMérieux, S.A., priority 2009, dated 2013).
# Experiments:
# Experiment in all cases: Color, fluorescence and growth of colonies on Columbia medium with nitroreductase substrate
# Format in all cases: cell-based
# [1] = tested on: Bacillus subtilis NCTC 9 372; design: key to Growth: NG: no growth; 0.5: low growth; 1: moderate growth; 2: good growth; key to Fluo.: fluorescence of the colonies / Col.: color of the colonies: —: no color/fluorescence; conditions: 40 mg substrate in 400 ml Columbia medium, 24 hours at 37° C.; for Fluo.: fluorescence of the colonies: UV lamp at 365 nm; for Col.: color of the colonies: examined visually
# Procedure: (§1) 40 mg of each of the substrates were dissolved in 4 ml of dimethylsulfoxide and added to 400 ml of previously autoclaved Columbia medium. The 5 media were distributed in Petri dishes 90 mm in diameter at the rate of 20 ml per dish. Seventeen strains of microorganisms obtained from collections and belonging to various species of bacteria and yeasts are inoculated as spots of about 10 000 colony forming units. The media are incubated for 24 hours at 37° C. and then the colonies formed are examined visually and under a UV lamp at 365 nm.
# [2] = tested on: Candida albicans ATCC 90 028; design: key to Growth: NG: no growth; 0.5: low growth; 1: moderate growth; 2: good growth; key to Fluo.: fluorescence of the colonies / Col.: color of the colonies: —: no color/fluorescence; conditions: 40 mg substrate in 400 ml Columbia medium, 24 hours at 37° C.; for Col.: color of the colonies: examined visually; for Fluo.: fluorescence of the colonies: UV lamp at 365 nm
# Procedure: as §1
# [3] = tested on: Candida glabrata NCPF 3 943; design: key to Growth: NG: no growth; 0.5: low growth; 1: moderate growth; 2: good growth; key to Fluo.: fluorescence of the colonies / Col.: color of the colonies: —: no color/fluorescence; conditions: 40 mg substrate in 400 ml Columbia medium, 24 hours at 37° C.; for Col.: color of the colonies: examined visually; for Fluo.: fluorescence of the colonies: UV lamp at 365 nm
# Procedure: as §1
# [4] = tested on: Enterococcus faecalis NCTC 775; design: key to Growth: NG: no growth; 0.5: low growth; 1: moderate growth; 2: good growth; key to Fluo.: fluorescence of the colonies / Col.: color of the colonies: —: no color/fluorescence; conditions: 40 mg substrate in 400 ml Columbia medium, 24 hours at 37° C.; for Fluo.: fluorescence of the colonies: UV lamp at 365 nm; for Col.: color of the colonies: examined visually
# Procedure: as §1
# [5] = tested on: Enterococcus faecium NCTC 7 171; design: key to Growth: NG: no growth; 0.5: low growth; 1: moderate growth; 2: good growth; key to Fluo.: fluorescence of the colonies / Col.: color of the colonies: —: no color/fluorescence; conditions: 40 mg substrate in 400 ml Columbia medium, 24 hours at 37° C.; for Fluo.: fluorescence of the colonies: UV lamp at 365 nm; for Col.: color of the colonies: examined visually
# Procedure: as §1
# [6] = tested on: Listeria monocytogenes NCTC 11 994; design: key to Growth: NG: no growth; 0.5: low growth; 1: moderate growth; 2: good growth; key to Fluo.: fluorescence of the colonies / Col.: color of the colonies: —: no color/fluorescence; conditions: 40 mg substrate in 400 ml Columbia medium, 24 hours at 37° C.; for Fluo.: fluorescence of the colonies: UV lamp at 365 nm; for Col.: color of the colonies: examined visually
# Procedure: as §1
# [7] = tested on: Providencia rettgeri NCTC 7 475; design: key to Growth: NG: no growth; 0.5: low growth; 1: moderate growth; 2: good growth; key to Fluo.: fluorescence of the colonies / Col.: color of the colonies: —: no color/fluorescence; conditions: 40 mg substrate in 400 ml Columbia medium, 24 hours at 37° C.; for Col.: color of the colonies: examined visually; for Fluo.: fluorescence of the colonies: UV lamp at 365 nm
# Procedure: as §1
# [8] = tested on: Pseudomonas aeruginosa NCTC 10 662; design: key to Growth: NG: no growth; 0.5: low growth; 1: moderate growth; 2: good growth; key to Fluo.: fluorescence of the colonies / Col.: color of the colonies: —: no color/fluorescence; conditions: 40 mg substrate in 400 ml Columbia medium, 24 hours at 37° C.; for Fluo.: fluorescence of the colonies: UV lamp at 365 nm; for Col.: color of the colonies: examined visually
# Procedure: as §1
# [9] = tested on: Salmonella typhimurium NCTC 74; design: key to Growth: NG: no growth; 0.5: low growth; 1: moderate growth; 2: good growth; key to Fluo.: fluorescence of the colonies / Col.: color of the colonies: —: no color/fluorescence; conditions: 40 mg substrate in 400 ml Columbia medium, 24 hours at 37° C.; for Fluo.: fluorescence of the colonies: UV lamp at 365 nm
# Procedure: as §1
# [10] = tested on: Staphylococcus aureus NCTC 11 939; design: key to Growth: NG: no growth; 0.5: low growth; 1: moderate growth; 2: good growth; key to Fluo.: fluorescence of the colonies / Col.: color of the colonies: —: no color/fluorescence; conditions: 40 mg substrate in 400 ml Columbia medium, 24 hours at 37° C.; for Col.: color of the colonies: examined visually; for Fluo.: fluorescence of the colonies: UV lamp at 365 nm
# Procedure: as §1
# [11] = tested on: Staphylococcus aureus NCTC 6 571; design: key to Growth: NG: no growth; 0.5: low growth; 1: moderate growth; 2: good growth; key to Fluo.: fluorescence of the colonies / Col.: color of the colonies: —: no color/fluorescence; conditions: 40 mg substrate in 400 ml Columbia medium, 24 hours at 37° C.; for Col.: color of the colonies: examined visually; for Fluo.: fluorescence of the colonies: UV lamp at 365 nm
# Procedure: as §1
# [12] = tested on: Staphylococcus epidermidis NCTC 11 047; design: key to Growth: NG: no growth; 0.5: low growth; 1: moderate growth; 2: good growth; key to Fluo.: fluorescence of the colonies / Col.: color of the colonies: —: no color/fluorescence; conditions: 40 mg substrate in 400 ml Columbia medium, 24 hours at 37° C.; for Col.: color of the colonies: examined visually; for Fluo.: fluorescence of the colonies: UV lamp at 365 nm
# Procedure: as §1
# [13] = tested on: Streptococcus pyogenes NCTC 8 306; design: key to Growth: NG: no growth; 0.5: low growth; 1: moderate growth; 2: good growth; key to Fluo.: fluorescence of the colonies / Col.: color of the colonies: —: no color/fluorescence; conditions: 40 mg substrate in 400 ml Columbia medium, 24 hours at 37° C.; for Fluo.: fluorescence of the colonies: UV lamp at 365 nm; for Col.: color of the colonies: examined visually
# Procedure: as §1
# [14] = tested on: Yersinia enterocolitica NCTC 11 176; design: key to Growth: NG: no growth; 0.5: low growth; 1: moderate growth; 2: good growth; key to Fluo.: fluorescence of the colonies / Col.: color of the colonies: —: no color/fluorescence; conditions: 40 mg substrate in 400 ml Columbia medium, 24 hours at 37° C.; for Col.: color of the colonies: examined visually; for Fluo.: fluorescence of the colonies: UV lamp at 365 nm
# Procedure: as §1
# [15] = tested on: Enterobacter cloacae NCTC 11 936; design: key to Growth: NG: no growth; 0.5: low growth; 1: moderate growth; 2: good growth; key to Col.: color of the colonies: —: no color/fluorescence; conditions: 40 mg substrate in 400 ml Columbia medium, 24 hours at 37° C.; for Col.: color of the colonies: examined visually
# Procedure: as §1
# [16] = tested on: Escherichia coli NCTC 10 418; design: key to Growth: NG: no growth; 0.5: low growth; 1: moderate growth; 2: good growth; key to Col.: color of the colonies: —: no color/fluorescence; conditions: 40 mg substrate in 400 ml Columbia medium, 24 hours at 37° C.
# Procedure: as §1
# [17] = tested on: Serratia marcescens NCTC 10 211; design: key to Growth: NG: no growth; 0.5: low growth; 1: moderate growth; 2: good growth; key to Col.: color of the colonies: —: no color/fluorescence; conditions: 40 mg substrate in 400 ml Columbia medium, 24 hours at 37° C.
# Procedure: as §1
compound,measurement,setting,value
"C[n+]1c(C=Cc2ccc([N+](=O)[O-])cc2)ccc2ccccc21.[I-] [2NSMQ^+I, 2-(4′-nitrostyryl)-N-methylquinolinium iodide]",Growth,[1],1
same,Growth,[2],0.5
same,Col.: color of the colonies,[2],—
same,Growth,[3],NG
same,Col.: color of the colonies,[3],—
same,Growth,[4],1
same,Growth,[5],1
same,Growth,[6],1
same,Growth,[7],2
same,Col.: color of the colonies,[7],Rust
same,Growth,[8],2
same,Growth,[9],2
same,Growth,[10],NG
same,Col.: color of the colonies,[10],—
same,Growth,[11],NG
same,Col.: color of the colonies,[11],—
same,Growth,[12],0.5
same,Col.: color of the colonies,[12],—
same,Growth,[13],0.5
same,Growth,[14],2
same,Col.: color of the colonies,[14],Rust
same,Growth,[15],2
same,Growth,[16],2
same,Growth,[17],2
"O=[N+]([O-])c1ccc(C=Cc2ccc3ccccc3n2)cc1 [2NSQ, 2-(4′-nitrostyryl)quinoline]",Growth,[1],1
same,Fluo.: fluorescence of the colonies,[1],—
same,Col.: color of the colonies,[1],—
same,Growth,[2],0.5
same,Fluo.: fluorescence of the colonies,[2],—
same,Col.: color of the colonies,[2],—
same,Growth,[3],1
same,Fluo.: fluorescence of the colonies,[3],—
same,Col.: color of the colonies,[3],—
same,Growth,[4],1
same,Fluo.: fluorescence of the colonies,[4],—
same,Col.: color of the colonies,[4],—
same,Growth,[5],1
same,Fluo.: fluorescence of the colonies,[5],—
same,Col.: color of the colonies,[5],—
same,Growth,[6],1
same,Fluo.: fluorescence of the colonies,[6],—
same,Col.: color of the colonies,[6],—
same,Growth,[7],2
same,Fluo.: fluorescence of the colonies,[7],—
same,Col.: color of the colonies,[7],—
same,Growth,[8],2
same,Fluo.: fluorescence of the colonies,[8],—
same,Col.: color of the colonies,[8],—
same,Growth,[9],2
same,Fluo.: fluorescence of the colonies,[9],—
same,Col.: color of the colonies,[9]; examined visually,—
same,Growth,[10],1
same,Fluo.: fluorescence of the colonies,[10],—
same,Col.: color of the colonies,[10],—
same,Growth,[11],1
same,Fluo.: fluorescence of the colonies,[11],—
same,Col.: color of the colonies,[11],—
same,Growth,[12],1
same,Fluo.: fluorescence of the colonies,[12],—
same,Col.: color of the colonies,[12],—
same,Growth,[13],1
same,Fluo.: fluorescence of the colonies,[13],—
same,Col.: color of the colonies,[13],—
same,Growth,[14],2
same,Fluo.: fluorescence of the colonies,[14],—
same,Col.: color of the colonies,[14],—
same,Growth,[15],2
same,Col.: color of the colonies,[15],—
same,Growth,[16],2
same,Col.: color of the colonies,[16]; examined visually,—
same,Growth,[17],2
same,Col.: color of the colonies,[17]; examined visually,—
"C[n+]1ccc(C=Cc2ccc([N+](=O)[O-])cc2)c2ccccc21.[I-] [4NSMQ^+I, 4-(4′-nitrostyryl)-N-methylquinolinium iodide]",Growth,[1],NG
same,Fluo.: fluorescence of the colonies,[1],—
same,Col.: color of the colonies,[1],—
same,Growth,[2],NG
same,Fluo.: fluorescence of the colonies,[2],—
same,Col.: color of the colonies,[2],—
same,Growth,[3],0.5
same,Fluo.: fluorescence of the colonies,[3],—
same,Col.: color of the colonies,[3],—
same,Growth,[4],1
same,Fluo.: fluorescence of the colonies,[4],—
same,Col.: color of the colonies,[4],Rust
same,Growth,[5],1
same,Fluo.: fluorescence of the colonies,[5],—
same,Col.: color of the colonies,[5],Rust
same,Growth,[6],1
same,Fluo.: fluorescence of the colonies,[6],—
same,Col.: color of the colonies,[6],Rust
same,Growth,[7],2
same,Fluo.: fluorescence of the colonies,[7],—
same,Col.: color of the colonies,[7],Rust e
same,Growth,[8],2
same,Fluo.: fluorescence of the colonies,[8],—
same,Growth,[9],1
same,Fluo.: fluorescence of the colonies,[9],—
same,Growth,[10],NG
same,Fluo.: fluorescence of the colonies,[10],—
same,Col.: color of the colonies,[10],—
same,Growth,[11],NG
same,Fluo.: fluorescence of the colonies,[11],—
same,Col.: color of the colonies,[11],—
same,Growth,[12],1
same,Fluo.: fluorescence of the colonies,[12],—
same,Col.: color of the colonies,[12],—
same,Growth,[13],NG
same,Fluo.: fluorescence of the colonies,[13],—
same,Col.: color of the colonies,[13],—
same,Growth,[14],1
same,Fluo.: fluorescence of the colonies,[14],—
same,Col.: color of the colonies,[14],Rust
same,Growth,[15],2
same,Col.: color of the colonies,[15],Rust
same,Growth,[16],2
same,Growth,[17],2
2-(4′-nitrophenyl)butadienyl-N-methylquinolinium iodide [2NPBMQ^+I],Growth,[1],0.5
same,Col.: color of the colonies,[1],—
same,Growth,[2],NG
same,Col.: color of the colonies,[2],—
same,Growth,[3],NG
same,Col.: color of the colonies,[3],—
same,Growth,[4],1
same,Growth,[5],1
same,Growth,[6],1
same,Growth,[7],2
same,Col.: color of the colonies,[7],Orange
same,Growth,[8],2
same,Col.: color of the colonies,[8],Orange
same,Growth,[9],1
same,Growth,[10],NG
same,Col.: color of the colonies,[10],—
same,Growth,[11],NG
same,Col.: color of the colonies,[11],—
same,Growth,[12],1
same,Col.: color of the colonies,[12],—
same,Growth,[13],0.5
same,Col.: color of the colonies,[13],—
same,Growth,[14],1
same,Growth,[15],2
same,Col.: color of the colonies,[15],Orange
same,Growth,[16],2
same,Growth,[17],2
